Experimental data as given in patent US20150125915A1, “Method for Producing Lactic Acid” (Kao Corporation, priority 2012, published 2015).

Key:
Type in all cases: cell-based
[1] = tested on: Rhizopus oryzae NBRC 5418; assay: Evaluation of ability to produce lactic acid-2, strain NBRC 5418; conditions: 0.5% (w/v) at spore germination, control of the strain without surfactant = 100
Protocol: (§1) (1) Spore suspensions were prepared in the same way as in Production Example 1 using Rhizopus oryzae NBRC 4707, NBRC 4785, NBRC 5384 (=JCM14625), and NBRC 5418 strains obtained from a culture collection NBRC.
(§2) (2) Mycelia were prepared from the spores of each strain under the same conditions as in Production Example 2 involving stirring at 100 rpm using 60 mL of a PDB medium non-supplemented or supplemented with 0.5% (w/v) (final concentration) of the surfactant sorbitan monolaurate (Rheodol(R) SP-L10, manufactured by Kao Corp.).
(§3) (3) The total amount of the fungus bodies obtained in (2) was inoculated to 100 mL of an inorganic culture medium under the same conditions as in Production Example 3 to grow the mycelia. […]
(§4) 30 g of the prepared wet fungus bodies of each strain of the genus Rhizopus was inoculated to 100 mL of an inorganic culture medium for lactic acid production evaluation (composition: 12.5% glucose, 0.1% ammonium sulfate, 0.06% potassium dihydrogen phosphate, 0.025% magnesium sulfate heptahydrate, 0.009% zinc sulfate heptahydrate, and 6.25% calcium carbonate; all the concentrations mean % (w/v)) applied to a 500-mL Erlenmeyer flask, and then cultured at 33.5° C. with stirring at 170 rpm. The production rate of lactic acid was determined by the same procedures as in Test Example 2. […]

[2] = tested on: fungus of the genus Rhizopus; assay: Evaluation of ability to produce lactic acid by repetitive use of fungus body; conditions: 0.5% (w/v) at germination, relative to control without surfactant in the first repetition
Protocol: Mycelia of a fungus of the genus Rhizopus were prepared in a medium non-supplemented with or containing 0.5% (w/v) (final concentration) of the surfactant sorbitan monolaurate (Rheodol(R) SP-L10) by the same procedures as in Test Example 4(2) and then cultured by the same procedures as in Test Example 4(3). The obtained fungus bodies were recovered by the same procedures as in Test Example 5(4). Subsequently, 25 g of the wet fungus bodies was cultured for 4 hours in an inorganic culture medium for lactic acid production evaluation by the same procedures as in Test Example 5. The production rate of lactic acid was determined. The same procedures of fungus body recovery and culture were repeated, and the production rate of lactic acid was determined at each run (the number of repetitions: 3). The production rate of lactic acid at each run was calculated as a relative value to the production rate of lactic acid under the control conditions (in the absence of the surfactant) in the first repetition. The concentration of lactic acid (unit: g of lactic acid/L of medium) in the supernatant sample of each culture medium was measured according to Reference Example 1 and divided by a time (unit: hr) required for change in lactic acid concentration to calculate the production rate of lactic acid per unit time (unit: g of lactic acid/L/hr). In addition, a relative value to the production rate of lactic acid under control conditions in each Production Example was determined.

[3] = tested on: Rhizopus oryzae NBRC 5384 (=JCM14625); assay: Evaluation of ability to produce lactic acid-2, strain NBRC 5384; conditions: 0.5% (w/v) at spore germination, control of the strain without surfactant = 100
Protocol: as §1, §2, §3, §4

Sorbitan monolaurate
Production rate of lactic acid (relative value) [1]: 135 relative value | Production rate of lactic acid (relative value) ([2]; repetition 1): 173 relative value | Production rate of lactic acid (relative value) ([2]; repetition 2): 170 relative value | Production rate of lactic acid (relative value) ([2]; repetition 3): 167 relative value | Production rate of lactic acid (relative value) [3]: 130 relative value
